For six compounds, EC50 results are on record in patent US5827871A, “Medicaments 1,2,3,4-tetrahydrocarbazoles and 5-HT1 agonist use thereof” (priority 1991, dated 1998).

Structures are written as SMILES. Structures can show the parent of a compound that is named as a salt.

5-HT1-like receptor (Canis lupus familiaris, UniProt P79250), sequence (P79250 whole entry): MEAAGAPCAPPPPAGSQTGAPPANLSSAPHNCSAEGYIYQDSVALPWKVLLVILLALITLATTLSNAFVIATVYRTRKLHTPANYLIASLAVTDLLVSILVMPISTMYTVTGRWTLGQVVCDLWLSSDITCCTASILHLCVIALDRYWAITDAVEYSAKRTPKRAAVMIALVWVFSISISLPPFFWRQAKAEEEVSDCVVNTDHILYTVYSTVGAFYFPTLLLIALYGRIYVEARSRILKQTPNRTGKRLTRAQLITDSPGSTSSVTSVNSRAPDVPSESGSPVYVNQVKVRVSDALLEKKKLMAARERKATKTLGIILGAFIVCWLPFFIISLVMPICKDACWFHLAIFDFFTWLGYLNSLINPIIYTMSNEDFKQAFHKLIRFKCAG

The target in one experiment is 5-HT1-like receptor (Canis lupus familiaris, UniProt P79250). Nature of the experiment: 5-HT1-like receptor screen, dog saphenous vein contraction. The conditions noted are these: contraction of dog saphenous vein helicoids, 37° C., in presence of ketanserin, prazosin, atropine, mepyramine, cocaine and ascorbate; EC50 estimated from concentration-effect curve. The method, then:
5-HT1 -like Receptor Screen
Helicoids of dog saphenous vein were set up at 37° C. in modified Krebs solution at a resting force of 10 mN. The solution also contained 1 μmol/l each of ketanserin prazosin, atropine and mepyramine, 6 μmol/l cocaine and 200 μmol/l ascorbate. Nearly […] contractions were measured with force transducers on a polygraph. The tissues were exposed twice to 5-hydroxytryptamine (5-HT) 2 μmol/l followed by washes. A cumulative concentration-effect curve was determined, followed by a curve to 5-HT in the presence of the highest used concentration of test compound. Contractions caused by the test compound were compared with those caused by 5-HT. The intrinsic activity of the test compound was calculated as the ratio of the maximum test compound-induced effect over the effect caused by 2 μmol/l 5-HT. The EC50 of the test compound was estimated from the corresponding effect curve. When appropriate equilibrium dissociation constants Kp were estimated by the method of Marano & Kaumann (1976, J. Pharmacol. Exp. Ther. 198, 518-525).
As to `CNC1CCc2[nH]c3ccc(C(N)=O)cc3c2C1` (stereo not shown) [Example 24, 3-Methylamino-6-carboxamido-1,2,3,4-tetrahydrocarbazole hydrochloride], the EC50 (in general, the concentration needed to bring the measured effect to its halfway point) is 0.1 to 15 µM.

With `CC(=O)Nc1ccc2[nH]c3c(c2c1)CC(N)CC3` (stereo not shown) [Example 21, 3-Amino-6-(acetamido)-1,2,3,4-tetrahydrocarbazole oxalate], the EC50 was 0.1 to 15 µM.

In the case of `CNS(=O)(=O)Cc1ccc2[nH]c3c(c2c1)CC(N)CC3` (stereo not shown) [Example 11, 3-Amino-6-(N-methylsulphonamidomethyl)-1,2,3,4-tetrahydrocarbazole oxalate], the EC50 is 0.1 to 15 µM.

As for `N#CCc1ccc2[nH]c3c(c2c1)CC(N)CC3` (stereo not shown) [Example 10, 3-Amino-6-cyanomethyl-1,2,3,4-tetrahydrocarbazole oxalate], the concentration giving a half-maximal response (EC50) is 0.1 to 15 µM.

For another experiment, the target named is T1, 5-HT1-like receptor (Oryctolagus cuniculus, UniProt P49144).
T1 construct: from tissue; host or cells: rabbit basilar artery (endothelium-denuded ring segments)
T1 sequence (P49144 whole entry): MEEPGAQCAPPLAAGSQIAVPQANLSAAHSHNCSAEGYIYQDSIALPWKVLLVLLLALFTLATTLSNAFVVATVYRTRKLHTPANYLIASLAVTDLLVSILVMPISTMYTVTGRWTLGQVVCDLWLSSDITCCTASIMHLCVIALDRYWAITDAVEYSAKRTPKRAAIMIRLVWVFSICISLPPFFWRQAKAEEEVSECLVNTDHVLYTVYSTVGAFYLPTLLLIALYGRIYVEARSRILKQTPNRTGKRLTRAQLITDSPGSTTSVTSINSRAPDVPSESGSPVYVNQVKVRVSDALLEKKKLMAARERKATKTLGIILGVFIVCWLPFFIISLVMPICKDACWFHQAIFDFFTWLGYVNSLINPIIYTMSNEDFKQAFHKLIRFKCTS
Nature of the experiment: 5-HT1-like receptor screen, rabbit isolated basilar artery contraction. The conditions noted are these: isometric tension of endothelium-denuded rabbit basilar artery rings, in presence of ascorbate, indomethacin, cocaine, ketanserin and prazosin. The procedure:
Experiments were performed in intracranial arteries from rabbit isolated basilar artery in a similar method to one described previously (Parsons and Whalley, 1989. Eur J Pharmacol 174, 189-196.).
In brief, rabbits were killed by overdose with anaesthetic (sodium pentobarbitone). The whole brain was quickly removed and immersed in ice cold modified Kreb's solution and the basilar artery removed with the aid of a dissecting microscope. The Krebs solution was of the following composition (mM) Na^+ (120); K^+ (5); Ca^2+ (2.25); Mg^2+ (0.5); Cl^- (98.5); SO4^2- (1); EDTA (0.04), equilibrated with 95% O2 /5% CO2. The endothelium was removed by a gentle rubbing of the lumen with a fine metal wire. Arteries were then cut into ring segments (ca 4-5 mm wide) and set up for recording of isometric tension in 50 ml tissue baths in modified Krebs solution with the additional supplement of (mM); […] (20); fumarate (10); pyruvate (5); L-glutamate (5) and glucose (10). The arteries were then placed under a resting force of 3-4 mN maintained at 37° C. and the solution bubbled with 95% O2 /5% CO2.
After tests for initial reactivity with 90 mM KCl depolarising solution and for lack of acetylcholine-induced relaxation of 5-HT ([…]) precontraction, cumulative concentration-effect curves ([…]) to 5-HT were constructed in the presence of ascorbate […], cocaine […], indomethacin […], ketanserin […] and prazosin […].
Following a 45-60 min wash period, cumulative concentration-effect curves to the test compounds or 5-HT (as a time match control) were constructed in the presence of ascorbate, indomethacin, cocaine, ketanserin and prazosin.
Take `NC1CCc2[nH]c3ccc(S(N)(=O)=O)cc3c2C1` (stereo not shown) [Example 15, 3-Amino-6-sulphonamido-1,2,3,4-tetrahydrocarbazole oxalate]: the EC50 lay in the range of 0.04 to 15 µM.

For the compound `CNC1CCc2[nH]c3ccc(C(N)=O)cc3c2C1` (stereo not shown) [Example 24, 3-Methylamino-6-carboxamido-1,2,3,4-tetrahydrocarbazole hydrochloride], the EC50 lay within 0.04 to 15 µM.

Consider `NC(=O)c1ccc2[nH]c3c(c2c1)CC(NCc1ccccc1)CC3` (stereo not shown) [Example 29, 3-Benzylamino-6-carboxamido-1,2,3,4-tetrahydrocarbazole oxalate], for which the EC50 fell in the range of 0.04 to 15 µM.
